Laboratory results reported in patent US20260274836A1, “NOVEL HEPATOSELECTIVE POLYADENYLATING POLYMERASES INHIBITORS AND THEIR METHOD OF USE” (Baruch S. Blumberg Institute, priority 2022, published 2026).

Target: T1, OATP1B3 (Homo sapiens, UniProt Q9NPD5)
T1 construct: expressed in transfected cells; host or cells: HEK293
T1 sequence (Q9NPD5 1-702): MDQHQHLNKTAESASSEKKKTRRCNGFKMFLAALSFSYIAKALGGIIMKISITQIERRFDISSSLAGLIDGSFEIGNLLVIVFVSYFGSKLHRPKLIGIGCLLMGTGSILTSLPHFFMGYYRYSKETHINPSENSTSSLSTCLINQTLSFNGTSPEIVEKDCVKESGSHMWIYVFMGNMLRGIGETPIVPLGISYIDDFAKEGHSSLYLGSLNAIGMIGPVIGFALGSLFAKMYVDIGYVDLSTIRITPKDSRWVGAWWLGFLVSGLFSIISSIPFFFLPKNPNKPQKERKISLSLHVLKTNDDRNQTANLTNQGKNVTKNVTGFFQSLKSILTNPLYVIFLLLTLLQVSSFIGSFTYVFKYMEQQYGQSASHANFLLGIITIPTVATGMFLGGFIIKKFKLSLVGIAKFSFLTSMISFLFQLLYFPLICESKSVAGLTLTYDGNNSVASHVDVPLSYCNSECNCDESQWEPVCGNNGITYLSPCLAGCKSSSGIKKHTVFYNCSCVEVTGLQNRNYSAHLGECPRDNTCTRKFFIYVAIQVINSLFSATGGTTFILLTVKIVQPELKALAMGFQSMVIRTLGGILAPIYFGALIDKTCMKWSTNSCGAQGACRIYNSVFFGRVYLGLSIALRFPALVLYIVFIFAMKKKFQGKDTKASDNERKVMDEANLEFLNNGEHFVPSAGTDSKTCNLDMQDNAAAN
Assay: OATP1B3 transporter substrate uptake in OATP1B3-HEK293 cells
Type: in vitro ADME
Protocol: Protocol for identification of compounds that are substrates of transporters OATPIBI and OATPIB3. Transfected HEK293 and vector control HEK293 cells were cultured in 24-well poly-D-lysine or collagen-coated tissue culture plates ([…]) for 2 and 10 minutes respectively in transport buffer (HBSSg, pH 7.4, pre-warmed to 37° C.). At a defined time point, the uptake experiments were stopped by removing dosing solution followed by two washes of ice-cold HBSSg buffer. The cells were lysed for 2 minutes with 75% ACN containing an appropriate internal standard (when available). Lysis buffer were chilled to −20° C., and the plate was kept on ice during lysis. The cell lysate was transferred into a 96-well plate for sample analysis with LC-MS/MS analysis to determine concentration of test compound in cell lysate. The uptake of test compounds was normalized by total cell protein using the BCA Protein Assay Kit following the manufacturer's protocol. The inhibitor Rifamycin SV was used to block OATP1B1 and OATP1B3 transporter activity in order to determine uptake ratios.

**Q.** `COc1cc2c(cc1OCCCCCCC(=O)O)C[C@@H](C(C)C)n1cc(C(=O)O)c(=O)cc1-2` [Example 6, (S)-9-((6-carboxyhexyl)oxy)-6-isopropyl-10-methoxy-2-oxo-6,7-dihydro-2H-pyrido[2,1-a]isoquinoline-3-carboxylic acid] was tested. Which “Uptake Ratio (−/+Inhibitor)” value (OATP1B3-HEK293 cells, test concentration 1 μM, inhibitor Rifamycin SV) did it give?
**A.** 11.57

**Q.** And the “Uptake Ratio (Transporter(−Inhibitor)/Mock(−Inhibitor))” value (OATP1B3-HEK293 vs mock HEK293, test concentration 1 μM)?
**A.** 24.80
